From patent US6251944A, “Para-substituted phenylene derivatives” (G. D. Searle & Company, priority 1999, dated 2001)
Structures can show the parent of a compound that is named as a salt.

Assays:
[1] = molecular target: T1, Human fibrinogen receptor (αIIbβ3) (Homo sapiens, UniProt P05106+P08514); experiment: Purified IIb/IIIa receptor assay (solid phase receptor assay); details: inhibition of 50% of maximum binding of biotinylated vitronectin; highest concentration tested 1.0×10^-4 M
T1 construct: purified from outdated platelets; from tissue; host or cells: outdated platelets (human)
Procedure: The activity of the compounds of the present invention was tested in the following assays.
Human fibrinogen receptor (αIIbβ3) was purified from outdated platelets. […] Biotinylated human vitronectin was prepared by coupling NHS-biotin from Pierce Chemical Company (Rockford, Ill.) to purified vitronectin as previously described. […] Anti-biotin antibody was obtained from Calbiochem (La Jolla, Calif.). Linbro microtiter plates were obtained from Flow Labs (McLean, Va.). ADP reagent was obtained from Sigma (St. Louis, Mo.).
Solid Phase Receptor Assays
The purified human fibrinogen receptor (αIIbβ3) was diluted from stock solutions to 1.0 μg/mL in Tris-buffered saline containing 1.0 mM Ca^++, Mg^++, and Mn^++, pH 7.4 (TBS^+++). The diluted receptor was immediately transferred to Linbro microtiter plates at 100 μL/well (100 ng receptor/well). The plates were sealed and incubated overnight at 4° C. to allow the receptor to bind to the wells. All remaining steps were at room temperature. The assay plates were emptied and 200 μL of 1% RIA grade BSA in TBS^+++ (TBS^+++ /BSA) were added to block exposed plastic surfaces. Following a 2 hour incubation, the assay plates were washed with TBS^+++ using a 96 well plate washer. Logarithmic serial dilution of the test compound and controls were made starting at a stock concentration of 2 mM and using 2 nM biotinylated vitronectin in TBS^+++ /BSA as the diluent. This premixing of labeled ligand with test (or control) ligand, and subsequent transfer of 50 μL aliquots to the assay plate was carried out with a CETUS Propette robot; the final concentration of the labeled ligand was 1 nM and the highest concentration of test compound was 1.0×10^-4 M. The competition occurred for two hours after which all wells were washed with a plate washer as before. Affinity purified horseradish peroxidase labeled goat anti-biotin antibody was diluted 1:3000 in TBS^+++ /BSA and 125 μL were added to each well. After 30 minutes, the plates were washed and incubated with […]/H2 O2 substrate in 100 mM/L citrate buffer, pH 5.0. The plate was read with a microtiter plate reader at a wavelength of 450 nm and when the maximum-binding control wells reached an absorbance of about 1.0, the final A450 were recorded for analysis. The data were analyzed using a macro written for use with the EXCEL™ spreadsheet program. The mean, standard deviation, and % CV were determined for duplicate concentrations. The mean A450 values were normalized to the mean of four maximum-binding controls (no competitor added) (B-MAX). The normalized values were subjected to a four parameter curve fit algorithm, [Robard et al., Int.

[2] = molecular target: T2, Human vitronectin receptor(αvβ3) (Homo sapiens, UniProt P05106+P06756); experiment: Vitronectin adhesion assay (solid phase receptor assay, αvβ3); details: inhibition of 50% of maximum binding of biotinylated vitronectin; highest concentration tested 1.0×10^-4 M; read-out: AvB3 IC50
T2 construct: purified from human placenta; from tissue; host or cells: human placenta
Procedure: The activity of the compounds of the present invention was tested in the following assays. […] Assay buffer, OPD substrate tablets, and RIA grade BSA were obtained from Sigma (St. Louis, Mo.). Anti-biotin antibody was obtained from Calbiochem (La Jolla, Calif.). Linbro microtiter plates were obtained from Flow Labs (McLean, Va.). ADP reagent was obtained from Sigma (St. Louis, Mo.). […] The purified human vitronectin receptor (αvβ3) was diluted from stock solutions to 1.0 μg/mL in Tris-buffered saline containing 1.0 mM Ca^++, Mg^++, and Mn^++, pH 7.4 (TBS^+++). The diluted receptor was immediately transferred to Linbro microtiter plates at 100 μL/well (100 ng receptor/well). The plates were sealed and incubated overnight at 4° C. to allow the receptor to bind to the wells. All remaining steps were at room temperature. The assay plates were emptied and 200 μL of 1% RIA grade BSA in TBS^+++ (TBS^+++ /BSA) were added to block exposed plastic surfaces. Following a 2 hour incubation, the assay plates were washed with TBS^+++ using a 96 well plate washer. […] The competition occurred for two hours after which all wells were washed with a plate washer as before. […] After 30 minutes, the plates were washed and incubated with OPD/H2 O2 substrate in 100 mM/L Citrate buffer, pH 5.0. […] The data were analyzed using a macro written for use with the EXCEL™ spreadsheet program. The mean, standard deviation, and % CV were determined for duplicate concentrations. The mean A450 values were normalized to the mean of four maximum-binding controls (no competitor added)(B-MAX). The normalized values were subjected to a four parameter curve fit algorithm [Rodbard et al., Int. […] Ser.

T1 sequence (P08514 32-887 limits assumed): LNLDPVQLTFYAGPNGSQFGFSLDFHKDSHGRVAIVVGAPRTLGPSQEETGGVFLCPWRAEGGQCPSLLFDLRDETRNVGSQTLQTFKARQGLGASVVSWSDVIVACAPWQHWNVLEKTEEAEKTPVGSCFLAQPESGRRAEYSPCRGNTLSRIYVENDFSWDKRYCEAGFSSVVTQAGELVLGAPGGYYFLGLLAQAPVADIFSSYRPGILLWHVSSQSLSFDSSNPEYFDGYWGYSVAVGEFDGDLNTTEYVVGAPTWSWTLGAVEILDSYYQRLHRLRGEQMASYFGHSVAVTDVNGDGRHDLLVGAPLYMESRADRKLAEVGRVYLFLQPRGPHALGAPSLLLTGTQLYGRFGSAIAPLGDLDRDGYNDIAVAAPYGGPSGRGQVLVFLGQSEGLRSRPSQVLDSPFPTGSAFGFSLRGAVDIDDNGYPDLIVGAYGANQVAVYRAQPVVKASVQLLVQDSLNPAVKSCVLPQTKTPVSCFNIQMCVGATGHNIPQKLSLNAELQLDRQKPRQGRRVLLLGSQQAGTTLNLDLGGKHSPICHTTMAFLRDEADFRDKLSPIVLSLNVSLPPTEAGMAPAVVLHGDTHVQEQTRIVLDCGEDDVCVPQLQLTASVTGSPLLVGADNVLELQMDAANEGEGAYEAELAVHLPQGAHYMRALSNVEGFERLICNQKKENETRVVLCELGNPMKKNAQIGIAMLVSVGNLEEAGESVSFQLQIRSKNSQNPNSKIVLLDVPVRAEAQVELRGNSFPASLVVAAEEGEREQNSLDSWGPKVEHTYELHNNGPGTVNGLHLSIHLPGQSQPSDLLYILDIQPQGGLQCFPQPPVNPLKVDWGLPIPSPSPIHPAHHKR
T1 sequence (P08514 891-1039 limits assumed): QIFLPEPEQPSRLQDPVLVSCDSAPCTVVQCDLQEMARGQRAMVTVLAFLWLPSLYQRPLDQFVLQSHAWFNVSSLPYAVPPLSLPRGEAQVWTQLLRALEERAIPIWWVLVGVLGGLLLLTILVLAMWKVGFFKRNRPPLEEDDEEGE
T1 sequence (P05106 27-788): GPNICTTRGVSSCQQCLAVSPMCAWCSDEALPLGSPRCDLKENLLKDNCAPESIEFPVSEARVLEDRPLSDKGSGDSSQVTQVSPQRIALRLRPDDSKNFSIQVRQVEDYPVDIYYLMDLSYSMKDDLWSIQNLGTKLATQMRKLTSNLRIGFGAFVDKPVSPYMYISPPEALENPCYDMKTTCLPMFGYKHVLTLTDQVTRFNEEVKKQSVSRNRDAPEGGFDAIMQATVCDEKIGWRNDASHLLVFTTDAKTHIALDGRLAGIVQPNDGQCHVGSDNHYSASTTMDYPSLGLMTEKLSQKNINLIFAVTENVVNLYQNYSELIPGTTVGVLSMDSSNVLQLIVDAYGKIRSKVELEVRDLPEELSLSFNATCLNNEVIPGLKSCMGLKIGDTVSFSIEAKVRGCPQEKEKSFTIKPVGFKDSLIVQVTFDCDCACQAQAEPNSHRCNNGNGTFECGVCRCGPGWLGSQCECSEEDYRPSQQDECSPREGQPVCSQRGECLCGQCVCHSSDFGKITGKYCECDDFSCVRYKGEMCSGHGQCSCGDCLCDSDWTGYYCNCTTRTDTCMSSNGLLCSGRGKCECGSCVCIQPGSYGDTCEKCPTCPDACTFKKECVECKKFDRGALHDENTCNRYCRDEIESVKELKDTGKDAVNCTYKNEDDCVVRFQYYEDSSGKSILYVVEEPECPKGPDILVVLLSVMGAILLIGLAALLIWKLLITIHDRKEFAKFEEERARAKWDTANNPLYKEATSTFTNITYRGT
T2 sequence (P06756 31-889 limits assumed): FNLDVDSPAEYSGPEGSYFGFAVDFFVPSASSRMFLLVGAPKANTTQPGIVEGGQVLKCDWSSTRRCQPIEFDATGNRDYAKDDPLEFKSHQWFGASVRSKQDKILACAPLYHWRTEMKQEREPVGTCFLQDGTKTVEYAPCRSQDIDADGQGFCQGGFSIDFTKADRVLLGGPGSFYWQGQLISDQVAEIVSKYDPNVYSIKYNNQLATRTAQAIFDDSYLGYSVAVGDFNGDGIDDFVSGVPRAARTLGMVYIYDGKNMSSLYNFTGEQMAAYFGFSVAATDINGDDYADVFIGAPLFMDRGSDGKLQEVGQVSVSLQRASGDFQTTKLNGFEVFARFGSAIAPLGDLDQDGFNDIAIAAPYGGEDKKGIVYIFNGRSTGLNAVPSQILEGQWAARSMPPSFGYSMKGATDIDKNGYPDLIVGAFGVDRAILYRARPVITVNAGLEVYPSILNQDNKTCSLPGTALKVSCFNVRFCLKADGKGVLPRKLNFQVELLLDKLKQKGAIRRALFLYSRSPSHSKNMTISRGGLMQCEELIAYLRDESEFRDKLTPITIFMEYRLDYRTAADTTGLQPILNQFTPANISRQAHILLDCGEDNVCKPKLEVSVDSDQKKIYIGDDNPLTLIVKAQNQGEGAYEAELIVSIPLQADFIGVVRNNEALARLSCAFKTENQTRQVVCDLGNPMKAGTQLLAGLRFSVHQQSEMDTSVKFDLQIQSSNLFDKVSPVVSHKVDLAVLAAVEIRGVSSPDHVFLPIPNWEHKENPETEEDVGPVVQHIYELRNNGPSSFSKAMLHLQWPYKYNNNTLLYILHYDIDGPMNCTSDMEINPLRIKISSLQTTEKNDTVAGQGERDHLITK
T2 sequence (P06756 891-1048 limits assumed): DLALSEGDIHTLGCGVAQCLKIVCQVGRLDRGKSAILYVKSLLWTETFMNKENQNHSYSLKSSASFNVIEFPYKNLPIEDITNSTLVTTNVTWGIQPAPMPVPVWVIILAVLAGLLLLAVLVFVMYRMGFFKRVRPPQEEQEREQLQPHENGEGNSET
T2 sequence (P05106 27-788): as the sequence (P05106 27-788) above

Compound | IC50 [1] [nM] | IC50 [2] [nM]
CC(C)(C)NC(=O)NC(Cc1ccc(NC(=O)c2cccc(NC(=N)N)c2)cc1)C(=O)O (stereo not drawn) [Example 124, 4-[[[3-[(aminoiminomethyl)amino]phenyl]carbonyl)amino]-N-[[(1,1-dimethylethyl)amino]carbonyl]phenylalanine, trifluoroacetate Salt] | 285 | 3
COC(=O)NC(Cc1ccc(NC(=O)c2cccc(NC(=N)N)c2)cc1)C(=O)O (stereo not drawn) [Example 54, 4-[[[3-[(aminoiminomethyl)amino]phenyl]carbonyl]amino]-N-(methoxycarbonyl)phenylalanine, trifluoroacetate Salt] | 36.5 | 0.77
COc1cc(NC(=O)c2cccc(NC(=N)N)c2)ccc1CC(NC(=O)OC(C)C)C(=O)O (stereo not drawn) [Example 113, 4-[[[3-[(aminoiminomethyl)amino]phenyl]carbonyl]amino]-2-methoxy-N-[(1-methylethoxy)carbonyl]phenylalanine, trifluoroacetate salt, monohydrate] | 253 | 1
CC(C)(C)CC(=O)NC(Cc1ccc(NC(=O)c2cc(NC(=N)N)cc(C(F)(F)F)c2)cc1)C(=O)O (stereo not drawn) [Example 110, 4-[[[3-[(aminoiminomethyl)amino]-5-(trifluoromethyl)phenyl]carbonyl]amino]-N-(3,3-dimethyl-1-oxobutyl)phenylalanine, trifluoroacetate Salt] | 326 | 4
CCOC(=O)NC(Cc1ccc(NC(=O)c2cccc(NC(=N)N)c2)cc1)C(=O)OCC (stereo not drawn) [Example 38, 4-[[[3-[(aminoiminomethyl)amino]phenyl]-carbonyl]amino]-N-(ethoxycarbonyl)phenylalanine Ethyl Ester, trifluoroacetate Salt] | 3360 | 106
N=C(N)Nc1cccc(C(=O)Nc2ccc(C(CC(=O)O)C(=O)O)cc2)c1 (stereo not drawn) [Example 69, [4-[[[3-[(aminoiminomethyl)amino]-phenyl]carbonyl]amino]phenyl]butanedioicAcid, trifluoroacetate Salt] | 37 | 94
COc1cc(NC(=O)c2cccc(NC(=N)N)c2)ccc1OCC(=O)O [Example 118, [4-[[[3-[(aminoiminomethyl)amino]phenyl]carbonyl]amino]-2-methoxyphenoxy]acetic Acid, trifluoroacetate Salt] | 54 | 3
CCCCS(=O)(=O)NC(Cc1ccc(OCc2cccc(NC(=N)N)c2)cc1)C(=O)O (stereo not drawn) [Example 11, O-[[3-[(aminoiminomethyl)amino]-phenyl]methyl]-N-(butylsulfonyl)tyrosine, trifluoroacetate Salt monohydrate] | 4 | 2.2
CCOC(=O)C(Cc1ccc(NC(=O)c2cccc(NC(=N)N)c2)cc1)NS(=O)(=O)c1ccccc1 (stereo not drawn) [Example 40, 4-[[[3-[(aminoiminomethyl)amino]phenyl]-carbonyl]amino]-N-(phenylsulfonyl)phenylalanine Ethyl Ester, monohydrate trifluoroacetate Salt] | 748 | 557
CC(C)OC(=O)NC(Cc1ccc(NC(=O)c2ccc(Cl)c(NC(=N)N)c2)cc1)C(=O)O (stereo not drawn) [Example 87, 4[[[3-[(aminoiminomethyl)amino]-4-chlorophenyl]carbonyl]amino]-N-[(1-methylethoxy)carbonyl]phenylalanine] | 85.3 | 0.44
CC(C)(C)CC(=O)NC(Cc1ccc(NC(=O)c2cccc(NC(=N)N)c2)cc1)C(=O)O (stereo not drawn) [Example 109, 4-[[[3-[(aminoiminomethyl)amino]phenyl]carbonyl]amino]-N-(3,3-dimethyl-1-oxobutyl)phenylalanine, trifluoroacetate Salt] | 111 | 5
N=C(N)Nc1cccc(C(=O)Nc2ccc(CCC(=O)O)cc2O)c1 [Example 75, 4-[[[3-[(aminoiminomethyl)amino]phenyl]-carbonyl]amino]-3-hydroxybenzenepropanoic Acid, trifluoroacetate Salt] | 330 | 14.5
COC(=O)[C@H](Cc1ccc(NC(=O)c2cccc(NC(=N)N)c2)cc1)NC(=O)OC(C)(C)C [Example 45, 4-[[[3-[(aminoiminomethyl)amino]phenyl]-carbonyl]amino]-N-[(1,1-dimethylethoxy)carbonyl]-L-phenylalanine, methyl Ester, trifluoroacetate Salt] | 603 | 39.4
N=C(N)Nc1cccc(C(=O)Nc2ccc(S(=O)(=O)CC(=O)O)cc2)c1 [Example 83, [[4-[[[3-[(aminoiminomethyl)amino]phenyl]carbonyl]amino]phenyl]sulfonyl]acetic Acid] | 474 | 1900
CCOC(=O)C(Cc1ccc(NC(=O)c2cccc(NC(=N)N)c2)cc1)NS(C)(=O)=O (stereo not drawn) [Example 37, 4-[[[3-[(aminoiminomethyl)amino]phenyl]carbonyl]amino]-N-(methylsulfonyl)phenylalanine Ethyl Ester, monohydrate trifluoroacetate Salt] | 2380 | 97.8
CC(=O)NC(Cc1ccc(NC(=O)c2cccc(NC(=N)N)c2)cc1)C(=O)O (stereo not drawn) [Example 35, N-acetyl-4-[[[3-[(aminoiminomethyl)amino]-phenyl]carbonyl]amino]phenylalanine, trifluoroacetate Salt] | 148 | 2.69
CC(C)OC(=O)NC(Cc1ccc(NC(=O)c2cccc(C(=O)NC(=N)N)c2)cc1)C(=O)O (stereo not drawn) [Example 128, 4-[[[3-[[(aminoiminomethyl)amino]carbonyl]phenyl]carbonyl]amino]-N-[(1-methylethoxy)carbonyl]phenylalanine, trifluoroacetate Salt] | 20 | 216
CC(C)COC(=O)NC(Cc1ccc(NC(=O)c2cc(NC(=N)N)cc(C(F)(F)F)c2)cc1)C(=O)O (stereo not drawn) [Example 2, 4-[[[3-[(aminoiminomethyl)amino]-5-(trifluoromethyl)phenyl]carbonyl]amino]-N-[(2-methylpropoxy)carbonyl]phenylalanine, trifluoroacetate Salt] | 8.08 | 0.18
N=C(N)c1cccc(C(=O)Nc2ccc(CCC(=O)O)cc2)c1 [Example 20, 4-[[[3-(Aminoiminomethyl)phenyl]carbonyl]-amino]benzenepropanoic Acid] | 39900 | > 100000
N=C(N)Nc1cccc(C(=O)Nc2ccc(CC(NS(=O)(=O)/C=C/c3ccccc3)C(=O)O)cc2)c1 (stereo not drawn) [Example 123, 4-[[[3-[(aminoiminomethyl)amino]phenyl]carbonyl]amino]-N-[(2-phenylethenyl)sulfonyl]phenylalanine, trifluoroacetate Salt] | 1.5 | 0.5
CCOC(=O)C(Cc1ccc(NC(=O)c2cccc(NC(=N)N)c2)cc1)NC(=O)c1ccccc1 (stereo not drawn) [Example 36, 4-[[[3-[(aminoiminomethyl)amino]phenyl]-carbonyl]amino]-N-(phenylcarbonyl)phenylalanine Ethyl Ester, monohydrate trifluoroacetate Salt] | 10500 | 1010
